# Laboratory results: article PMC5861220, “The Cytochrome P450-Mediated Metabolism Alternation of Four Effective Lignans From Schisandra chinensis in Carbon Tetrachloride-Intoxicated Rats and Patients With Advanced Hepatocellular Carcinoma” (Frontiers in Pharmacology, 2018)
# Read-outs that look alike come from different tables or passages of the source.
# Columns and labels:
# [1] = test system: acute liver injury (ALI) rats; assay: Biochemical indexes of liver and renal functions in CCl4-intoxicated (ALI) rats; format: in vivo, rat
# Protocol: Male Sprague-Dawley rats, weighing 180–220 g, were obtained from Beijing Vital River Experimental Animal Co., Ltd. The animals were quarantined for 1 week prior to study and maintained on a 12-h light/12-h dark cycle at 22 ± 1°C and at 50–55% relative humidity with free access to solid pellet diet and water ad libitum throughout the study. All rats were assigned randomly to three groups, including acute liver injury (ALI) rat, SC-treated ALI rat and the control, 5 in each group. The ALI and SC-treated ALI rats were intraperitoneal injected two doses of the mixture of CCl4 and olive oil (1:1, V/V) at 2 mL/kg in a 24 h time interval (Huang et al., [2001]), while the control group was given the same volume of olive oil. Then, the SC-treated ALI rat was orally dosed with SC alcoholic extract suspended in 0.5% sodium carboxymethyl cellulose (CMC) at 1.5 g/kg/day for 4 days after CCl4 injection. The dosages were set according to the amounts of the four active lignans used previously for pharmacological studies and their contents in the extract (Chiu et al., [2002], [2007]; Cheng et al., [2013]). All animal protocols were approved by the Animal Care and Welfare Committee of the Academy of Military Medical Sciences. All animal procedures complied with the Guide for the Care and Use of Laboratory Animals issued by Beijing Association on Laboratory Animal Care (BALAC).
# Serum aspartate transaminase (AST), alanine transaminase (ALT), alkaline phosphatase (ALP), lactate dehydrogenase (LDH), total bilirubin, blood urea nitrogen (BUN), and creatinine (CRE) levels were determined with commercial kits (Nanjing Jiancheng Bioengineering Institute, China).
# [2] = Transport across Caco-2 cell monolayer; format: in vitro ADME; conditions: human, 5 μM
# Protocol: Caco-2 cell (passage 38) was used in the transport experiments. Cells were seeded on polycarbonate filters (12 mm diameter, pore size […]) at 1 × 10^5/cm^2. The cell monolayer was formed 21 days post seeding when the transepithelial electrical resistance (TEER) was above 1,000 Ω• cm^2. Three concentration levels (5, 10, and 50 μM) were set for the four schisandra lignans in the study. After preincubation for 1 h at 37°C, the solution of the four lignans was respectively added to the apical (0.4 mL) or basolateral (0.6 mL) chamber for absorptive (AP → BL) and secretive (BL → AP) permeability test. At the specified timepoints (0.5, 1, 1.5 and 2 h), 50 μL samples (n = 3) were withdrawn from receiver chamber, and meanwhile, 50 μL fresh buffer was added. The four lignans were determined by HPLC-MS method.
# The efflux rate (ER) was calculated by the formula ER = Papp (BL → AP)/Papp(AP → BL).
# [3] = ALI rat intoxicated with CCl4 vs control rats
# [4] = CCl4-intoxicated rats vs control
# [5] = Caco-2, with PSC833 (concentration not stated), + PSC833
# [6] = Caco-2, ER = Papp (BL → AP)/Papp(AP → BL)
smiles,measurement,setting,value
"ClC(Cl)(Cl)Cl [CCl4, carbon tetrachloride]",Decrease of content of liver microsomal CYP450 enzyme,[1]; [3],54%
same,Increase of BUN,[1]; [3],30%
same,Increase of liver index,[1]; [3],40%
same,Increase of serum ALT,[1]; [3],720%
same,Increase of serum AST,[1]; [3],30%
same,BUN,[1]; CCl4-intoxicated rats,18.3 ± 1.2 mg/dL
same,CRE,[1]; CCl4-intoxicated rats,0.8 ± 0.1 mg/dL
same,Serum ALT increase,[1]; [4],8.2 folds
same,Serum AST increase,[1]; [4],1.3 folds
same,Liver index,"[1]; CCl4-intoxicated rats, CCl4:olive oil (1:1) 2 mL/kg i.p., two doses",38 ± 5 g/kg
same,Liver P450,"[1]; CCl4-intoxicated rats, liver microsomal CYP450 content",0.27 ± 0.12 nmol/mg
same,ALP,"[1]; CCl4-intoxicated rats, serum",8.15 ± 0.09 IU/L
same,ALT,"[1]; CCl4-intoxicated rats, serum",329 ± 49 IU/L
same,AST,"[1]; CCl4-intoxicated rats, serum",268 ± 49 IU/L
same,LDH,"[1]; CCl4-intoxicated rats, serum",605 ± 168 IU/L
same,TB,"[1]; CCl4-intoxicated rats, total bilirubin",0.09 ± 0.02 mg/dL
"C[C@H]1O[C@@H](O[C@H]2[C@@H](O)C[C@H](O[C@H]3[C@@H](O)C[C@H](O[C@H]4CC[C@@]5(C)[C@H](CC[C@@H]6[C@@H]5C[C@@H](O)[C@]5(C)[C@@H](C7=CC(=O)OC7)CC[C@]65O)C4)O[C@@H]3C)O[C@@H]2C)C[C@H](O)[C@@H]1O [Digoxin, digoxin, reference compound]","Papp A→B at 2 h, 5 μM",[2]; [5],1.46 ± 0.24 ×10⁻⁶ cm/s
same,"Papp B→A at 2 h, 5 μM",[2]; [5],2.38 ± 0.58 ×10⁻⁶ cm/s
same,"efflux ratio at 2 h, 5 μM","[2]; Caco-2, with PSC833 (concentration not stated), + PSC833, read-out: ER",1.63
same,"Papp A→B at 2 h, 5 μM",[2]; Caco-2,3.29 ± 4.02 ×10⁻⁶ cm/s
same,"Papp B→A at 2 h, 5 μM",[2]; Caco-2,11.6 ± 0.82 ×10⁻⁶ cm/s
same,"efflux ratio at 2 h, 5 μM",[2]; [6],3.53
"CC(C)NCC(O)COc1cccc2ccccc12 (stereo not shown) [Propranolol, propranolol, reference compound]","Papp A→B at 2 h, 5 μM",[2]; Caco-2,32.9 ± 6.03 ×10⁻⁶ cm/s
same,"Papp B→A at 2 h, 5 μM",[2]; Caco-2,24.6 ± 1.8 ×10⁻⁶ cm/s
same,"efflux ratio at 2 h, 5 μM",[2]; [6],0.75
